PubChem BioAssay AID1421 (Emory University Molecular Libraries Screening Center, 2008)
Calls of active or inactive are those of the source. How the calls were made is not given here.

molecular target: Prostaglandin E2 receptor EP2 subtype (Homo sapiens) (UniProt P43116); test: EP2 receptor modulators, dose response, cell-based, human EP2, PGE2 EC50 shift (AID 1421); settings: EP2-expressing cells, PGE2 EC50 shift by compound
Sequence (P43116 whole entry, looked up): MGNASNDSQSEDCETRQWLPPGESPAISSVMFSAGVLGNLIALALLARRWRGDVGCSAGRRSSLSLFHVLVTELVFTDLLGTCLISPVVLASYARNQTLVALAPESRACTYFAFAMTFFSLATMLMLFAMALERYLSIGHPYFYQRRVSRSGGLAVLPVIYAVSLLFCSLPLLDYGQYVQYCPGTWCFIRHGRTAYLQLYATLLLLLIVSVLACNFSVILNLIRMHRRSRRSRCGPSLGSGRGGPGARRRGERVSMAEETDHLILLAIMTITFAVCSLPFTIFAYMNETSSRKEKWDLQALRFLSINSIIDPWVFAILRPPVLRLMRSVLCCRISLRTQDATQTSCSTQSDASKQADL

outcome | Compound
active | O=C(N/N=C/c1cccc(F)c1)NC1CCCCC1
active | CCCOc1ccc(Cl)cc1CNc1ccccc1
active | CC(C)(C)C1CCC(=NNc2ccc(S(N)(=O)=O)cc2[N+](=O)[O-])CC1 (configuration not stated)
active | FC(F)(F)c1cc(-c2ccccc2)nc(N2CCOCC2)n1

same assay, conditions: EP2-expressing cells, PGE2 EC50 shift by compound; measured here: PGE2 EC50 at 6.7 uM compound

Compound | PGE2 EC50 with compound
CSc1ncnc2sc(C)c(C)c12 | 1.22 nM
CCOC(=O)c1c(NC(=O)c2cccs2)sc2c1CCCC2 | 0.81 nM
CC(=O)c1ccc(S(=O)(=O)NCCCC(=O)NCCc2ccccn2)cc1 | 1.15 nM
CCOP(=O)(OCC)c1nc(-c2cccc3ccccc23)oc1N1CCCCC1 | 1.11 nM
Cc1ccc(-c2cc3nn(-c4ccccc4)c(N)c3c(=O)o2)cc1 | 1.87 nM
Cc1ccc(-n2nc3c(c2NC(=O)c2ccc(Br)o2)CSC3)c(C)c1 | 1.36 nM
COC(=O)c1cc(Br)c(=O)n(-c2nccs2)c1 | 2.71 nM
CC1(C)C2CCC1(C)C(OC(=O)CC(=O)O)C2 (configuration not stated) | 0.72 nM
COc1ccc(-n2c(COc3ccc(Cl)cc3)nnc2SCc2ccc(C#N)cc2)cc1 | 1.22 nM
COc1cccc2[nH]c3c(N4CCCCC4)ncnc3c12 | 0.6 nM
CCOc1cc(/C=N/NC(N)=O)ccc1OC(=O)c1ccc(C)cc1 | 1.52 nM
Cc1ccc(C(=O)C2=C(O)C(=O)N(CCCn3ccnc3)C2c2ccc(OC(C)C)cc2)o1 (configuration not stated) | 1.01 nM
CCOC(=O)CCN(Cc1sccc1C)S(=O)(=O)c1ccc(F)cc1 | 1.15 nM
O=C(CN1CCN(Cc2ccccc2)CC1)Nc1ccccc1-c1ccccc1 | 2.97 nM
O=C(COc1cccc2ccccc12)N1c2ccccc2CCc2ccccc21 | 1.19 nM
Cc1ccc(OCc2n[nH]c(=S)n2Cc2ccccc2)cc1 | 1.17 nM
Cc1sc(NC(=O)CN2CCOCC2)c(C(=O)c2ccccc2)c1C | 1.18 nM

Compound | PGE2 EC50 with compound
N#Cc1sc2nc(C3CC3)cc(-c3ccccc3)c2c1N | 0.78 nM
CC(C)(C)C1CCC(=NNc2ccc(S(N)(=O)=O)cc2[N+](=O)[O-])CC1 (configuration not stated) | 1.01 nM
CC(=O)c1sc2nc(-c3ccc(C)cc3)c3c(c2c1N)CCCC3 | 2.47 nM
Cc1scc(-c2n[nH]c(=S)n2Cc2ccccc2)c1C | 2.55 nM
CCOC(=O)C1=NN(c2cccc(C)c2)C2(S1)SC(C(C)=O)=C(C)N2c1ccccc1 (configuration not stated) | 0.31 nM
O=C(c1cc2sccc2n1Cc1ccccc1)N1CCCc2ccccc21 | 1.3 nM
Cn1c(=O)c2c(SC3CCCC3)nc(C3CC3)nc2n(C)c1=O | 0.61 nM
CN(Cc1cc(Br)cc(Br)c1O)Cc1c(O)ccc2ccccc12 | 1.22 nM
N#CC1=C(N)SC(N)=C(C#N)C1c1ccoc1 | 2.61 nM
Oc1ccccc1-c1nc(N2CCCC2)c2ccccc2n1 | 0.64 nM
CCN1CCN(c2c(Cl)cccc2NC(=O)c2ccc(Br)o2)CC1 | 2.53 nM
O=C(O)c1cc2c(s1)-c1ccccc1OC2 | 0.91 nM
Cc1cccc(C)c1NC(=O)CSc1nc(COc2ccccc2)nc2ccccc12 | 0.82 nM
Cc1cc2ccccn2c1C(=O)c1ccc(Cl)cc1 | 1.24 nM
Cc1ccccc1NC1=C(C(=O)c2ccccc2)N(C)S(=O)(=O)c2ccccc21 | 1.01 nM
C[C@]12CCC3C(CC[C@H]4C[C@@H](Cl)CC[C@]34C)C1CCC2=O (some centres not stated) | 0.99 nM
CCCn1c(-c2cccs2)nc2c1c(=O)[nH]c(=O)n2Cc1ccccc1 | 2.78 nM

The remaining lines, values ahead:

PGE2 EC50 with compound | Compound
2.65 nM | O=C(N/N=C/c1ccc[nH]1)c1ccccc1OCc1ccccc1Cl
1.35 nM | CC(=O)c1ccc2c(c1)c1ccccc1n2CC(C)C
0.69 nM | CC1CCN(c2ccccc2NC(=O)c2ccc(F)cc2)CC1
1 nM | COc1ccc(C(=O)/C(=C/O)N=Nc2ccc(F)cc2)cc1
6.03 nM | COc1ccccc1-c1nnc2sc(-c3cc4ccccc4o3)nn12
1.17 nM | OC1(c2ccc(Br)cc2)CN(c2ccccc2)C2=[N+]1CCS2 (configuration not stated)
0.97 nM | CC(=O)OCC(=O)[C@@]12OC(C)(C)O[C@@H]1C[C@H]1[C@H]3CC=C4C[C@@H](O)CC[C@]4(C)[C@@H]3CC[C@@]12C
0.64 nM | Cc1ccccc1Nc1cccc2nonc12
1.34 nM | CCOC(=O)c1c(C=O)c(C)n(Cc2ccccc2Cl)c1C
1.1 nM | O=C(N/N=C/c1cccc(F)c1)NC1CCCCC1
2.8 nM | O=c1c2ccccc2c(-c2ccccc2)nn1Cc1ccccc1
1.48 nM | S=c1[nH]cc(-c2ccccc2)n1-c1ccccc1
1.07 nM | O=C(Nc1ccccc1Oc1ccccc1)c1ccccc1F
1.18 nM | CCCCOc1ccc(-c2nnc(-c3ccco3)o2)cc1
1.22 nM | CCCOc1ccc(Cl)cc1CNc1ccccc1
0.93 nM | O=C(O)c1cc2cc(F)ccc2[nH]1
1.07 nM | O=C(O)CCCN1C(=O)/C(=C\c2ccco2)SC1=S
0.71 nM | COc1ccccc1-c1nnc(SCC(=O)c2ccc(C3CCCCC3)cc2)n1Cc1ccco1
0.65 nM | CC(=O)Nc1ccc(C2=NN(c3ccccc3)C(c3cccs3)C2)cc1 (configuration not stated)
0.98 nM | O=c1[nH]ncc2c3ccccc3n(Cc3cccc(Cl)c3)c12
0.78 nM | C/C=C/Cn1c(SCc2ccc(C)cc2)nc2c1c(=O)[nH]c(=O)n2C
0.99 nM | CC1(C)OC(c2ccccc2)=C/C(=C/C=Nc2ccccc2)O1

PGE2 EC50 with compound | Compound
1.13 nM | CNC(=O)c1cc2c(=O)n3cc(C)ccc3nc2n(C(C)C)c1=N
0.75 nM | COc1cc2ccccc2cc1C(=O)NC(=S)Nc1cccc(C(=O)O)c1
0.57 nM | C=CCc1cc(C=O)cc(OC)c1OCc1ccc(Cl)cc1
0.73 nM | CCOC(=O)c1c(-c2ccc(C)o2)csc1NC(=O)CN1CCCCC1
2.78 nM | COc1ccc(-c2c3c([nH]c(=S)c2C#N)CCC3)cc1
0.69 nM | CC(C)=CCC/C(C)=C/CC/C(C)=C/CSc1ccccc1C(=O)O
1.32 nM | CCOc1ccccc1C(=O)Nc1ccsc1C(=O)OC
0.87 nM | CSc1nc2ccccc2c(=O)n1Cc1ccc(F)cc1
1.26 nM | Clc1ccc(-c2nc3ccccn3c2CN2CCCCC2)cc1
2.82 nM | c1ccc(-c2ccccc2-c2nc(-c3cccnc3)no2)cc1
1.59 nM | FC(F)(F)c1cc(-c2ccccc2)nc(N2CCOCC2)n1
0.92 nM | CC(C)Oc1ccc(/C=C(/NC(=O)c2ccccc2)C(=O)NCCC(=O)O)cc1
1.59 nM | FC(F)(F)c1cc(CO[C@H]2CCCN[C@H]2c2ccccc2)cc(C(F)(F)F)c1
1.03 nM | CSc1nc(-c2ccc(Cl)cc2)nn1S(=O)(=O)c1ccccc1
0.97 nM | Cc1cccc(-c2csc(N)c2C(=O)OC(C)C)c1
2.5 nM | Cc1ccc(Cn2c(Cc3ccccc3)nc3ccccc32)cc1
0.81 nM | O=C(CNCC1CCCCC1)Nc1ccccc1N1CCCCC1
1.4 nM | O=C1C2C3c4ccccc4C(c4ccccc43)C2c2nc3ccccc3n21 (configuration not stated)
1.49 nM | CC(C)CCn1c(-c2nonc2N)nc2ccccc21
0.85 nM | CC(=O)OC[C@@]1(O)C[C@@]23CCC4c5ccoc5CC[C@]4(C)C2CC[C@@H]1C3 (some centres not stated)
1.38 nM | C/C(=N\N(Cc1ccccc1)c1ccccc1)c1cccnc1
1 nM | CC1CCN(c2nc(-c3ccncc3)nc3ccccc23)CC1
